Assay [1] has as its target 26S proteasome non-ATPase regulatory subunit 14 (Homo sapiens, UniProt O00487). The assay is described as follows: inhibition of proteasome subunit RPN11 – biochemical, fluorescence polarization, uHTS hits, confirmation (AID 602368). The format is functional. (In general: Fluorescence polarisation rises when a labelled molecule tumbles more slowly, as on binding a larger partner.)

In assay [2] the target is 72 kDa type IV collagenase (Homo sapiens, UniProt P08253). The assay is described as follows: Dose Response validation of uHTS RPN11 inhibitor hits using a MMP-2 Fluorescence assay. It counts as functional.
Assay [3] has as its target Prothrombin (Bos taurus, UniProt P00735). The assay is described as follows: thrombin inhibition, dose response, biochemical, fluorescence polarization, uHTS hits (AID 602369). The format is functional.
Assay [4] has as its target T1, Corticotropin-releasing factor receptor 2/Corticotropin-releasing factor-binding protein (Homo sapiens, UniProt P24387+Q13324).
T1 sequence (Q13324 whole entry): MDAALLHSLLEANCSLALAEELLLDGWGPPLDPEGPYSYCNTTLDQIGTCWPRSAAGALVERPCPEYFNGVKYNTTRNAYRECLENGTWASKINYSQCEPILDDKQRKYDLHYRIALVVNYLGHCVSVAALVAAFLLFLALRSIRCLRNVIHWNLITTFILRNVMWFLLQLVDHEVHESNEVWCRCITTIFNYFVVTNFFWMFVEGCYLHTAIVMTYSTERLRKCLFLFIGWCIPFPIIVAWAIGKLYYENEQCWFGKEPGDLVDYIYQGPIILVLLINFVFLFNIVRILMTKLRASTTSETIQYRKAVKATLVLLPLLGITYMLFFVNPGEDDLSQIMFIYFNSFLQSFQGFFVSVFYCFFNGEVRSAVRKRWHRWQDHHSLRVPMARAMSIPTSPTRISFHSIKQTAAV
T1 sequence (P24387 whole entry): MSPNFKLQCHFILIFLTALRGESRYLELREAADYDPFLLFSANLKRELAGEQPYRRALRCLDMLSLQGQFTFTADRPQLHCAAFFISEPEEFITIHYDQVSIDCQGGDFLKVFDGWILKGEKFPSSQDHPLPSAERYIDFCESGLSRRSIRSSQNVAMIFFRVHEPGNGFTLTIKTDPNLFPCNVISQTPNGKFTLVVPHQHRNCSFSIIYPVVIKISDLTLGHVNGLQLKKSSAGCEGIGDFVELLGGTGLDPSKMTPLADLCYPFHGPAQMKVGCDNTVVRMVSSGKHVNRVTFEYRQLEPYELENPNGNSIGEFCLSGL
Description: activators of CRF receptor 2 with binding protein – uHTS hits, confirmation (AID 602473). It counts as functional. Particulars: read-out: EC50_Mean.

Assay [5] addresses Protein Wnt-3a (Mus musculus, UniProt P27467). The assay is described as follows: Wnt3a-driven reporter signaling inhibition, dose response, selectivity assay for Gli-SUFU antagonist project, Wnt-LIGHT cells, luminescence (AID 651570).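 Further: Wnt-LIGHT reporter cells stimulated with conditioned medium from Wnt3a-producing cells.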 The format is functional. The following applies: read-out: IC50_Mean.
The nature of assay [6]: NIH-3T3 fibroblast cytotoxicity, dose response, cytotoxicity control, cell-based, fluorescence, Alamar Blue, secondary assay (AID 2327).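 Further: NIH-3T3 mouse fibroblasts cultured with fluconazole at 8 µg/mL.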 It counts as functional.
The nature of assay [7]: C. albicans growth with fluconazole, confirmation, fluorescence, retest (AID 2467). The format is functional, cell-based.
Assay [8] deals with Peroxisome proliferator-activated receptor gamma/Nuclear receptor coactivator 1 (Homo sapiens, UniProt P37231). Description: TR-FRET dose response biochemical High Throughput Screening assay for agonists of the steroid receptor coactivator 1 (SRC-1) recruitment by the peroxisome proliferator-activated receptor gamma (PPAR gamma): non-selective agonists. [Related pubchem assays (depositor defined):AID1300, AID1808, AID504735, AID631]. It counts as protein assay. On the technique in general: In TR-FRET formats the signal depends on donor and acceptor labels being close together.
Peroxisome proliferator-activated receptor gamma/Nuclear receptor coactivator 1, sequence (P37231 whole entry): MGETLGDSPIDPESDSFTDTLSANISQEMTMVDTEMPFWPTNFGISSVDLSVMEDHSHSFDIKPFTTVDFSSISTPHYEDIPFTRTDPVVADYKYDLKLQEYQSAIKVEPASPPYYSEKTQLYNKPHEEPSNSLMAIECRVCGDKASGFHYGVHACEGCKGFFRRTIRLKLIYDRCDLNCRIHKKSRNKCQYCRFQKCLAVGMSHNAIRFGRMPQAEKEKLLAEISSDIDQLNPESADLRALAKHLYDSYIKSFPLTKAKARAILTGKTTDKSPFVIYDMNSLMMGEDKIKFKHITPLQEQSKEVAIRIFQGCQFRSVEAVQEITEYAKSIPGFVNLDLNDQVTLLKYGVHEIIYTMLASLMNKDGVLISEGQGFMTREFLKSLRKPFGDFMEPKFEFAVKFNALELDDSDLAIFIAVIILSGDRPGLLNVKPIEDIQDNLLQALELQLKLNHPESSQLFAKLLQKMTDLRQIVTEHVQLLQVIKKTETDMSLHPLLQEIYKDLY
Peroxisome proliferator-activated receptor gamma/Nuclear receptor coactivator 1, sequence (Q15788 whole entry, further chain): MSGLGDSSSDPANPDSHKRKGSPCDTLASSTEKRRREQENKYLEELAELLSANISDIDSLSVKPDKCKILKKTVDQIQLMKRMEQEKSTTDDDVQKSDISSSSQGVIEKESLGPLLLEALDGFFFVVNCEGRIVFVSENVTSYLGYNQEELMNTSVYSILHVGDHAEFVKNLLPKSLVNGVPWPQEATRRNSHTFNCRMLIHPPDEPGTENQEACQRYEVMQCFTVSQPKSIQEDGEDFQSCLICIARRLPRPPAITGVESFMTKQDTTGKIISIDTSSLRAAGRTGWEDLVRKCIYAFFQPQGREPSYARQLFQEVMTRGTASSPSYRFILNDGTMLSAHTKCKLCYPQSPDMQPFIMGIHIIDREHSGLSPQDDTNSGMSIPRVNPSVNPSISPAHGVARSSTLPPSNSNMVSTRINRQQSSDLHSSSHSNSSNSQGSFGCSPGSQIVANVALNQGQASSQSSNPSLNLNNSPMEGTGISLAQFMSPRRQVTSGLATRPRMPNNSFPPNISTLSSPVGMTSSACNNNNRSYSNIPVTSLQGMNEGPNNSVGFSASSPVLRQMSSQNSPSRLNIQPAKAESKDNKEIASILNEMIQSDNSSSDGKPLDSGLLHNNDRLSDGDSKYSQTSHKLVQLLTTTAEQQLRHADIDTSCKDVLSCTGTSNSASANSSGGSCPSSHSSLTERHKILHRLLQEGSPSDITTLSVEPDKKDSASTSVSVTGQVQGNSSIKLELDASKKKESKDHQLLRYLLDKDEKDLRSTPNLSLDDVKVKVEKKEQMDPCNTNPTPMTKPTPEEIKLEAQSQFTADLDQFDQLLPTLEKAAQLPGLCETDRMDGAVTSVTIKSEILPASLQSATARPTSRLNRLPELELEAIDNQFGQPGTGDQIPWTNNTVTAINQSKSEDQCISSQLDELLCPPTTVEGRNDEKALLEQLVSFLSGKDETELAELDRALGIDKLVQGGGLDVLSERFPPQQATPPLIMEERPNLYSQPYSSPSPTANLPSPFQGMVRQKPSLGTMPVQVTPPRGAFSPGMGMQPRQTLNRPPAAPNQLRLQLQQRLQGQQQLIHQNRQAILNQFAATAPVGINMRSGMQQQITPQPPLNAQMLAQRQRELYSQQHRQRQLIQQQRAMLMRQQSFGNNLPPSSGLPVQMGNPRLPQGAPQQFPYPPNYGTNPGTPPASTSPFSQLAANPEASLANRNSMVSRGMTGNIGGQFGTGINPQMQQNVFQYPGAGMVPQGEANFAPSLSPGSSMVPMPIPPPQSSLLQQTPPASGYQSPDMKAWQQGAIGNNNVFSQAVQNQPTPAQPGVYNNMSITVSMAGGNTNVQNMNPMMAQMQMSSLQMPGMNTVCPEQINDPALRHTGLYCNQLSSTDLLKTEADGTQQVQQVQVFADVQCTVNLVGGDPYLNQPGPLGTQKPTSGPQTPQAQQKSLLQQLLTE

The target of assay [9] is Peroxisome proliferator-activated receptor gamma/Nuclear receptor coactivator 3 (Homo sapiens, UniProt P37231). The assay is described as follows: TR-FRET dose response biochemical High Throughput Screening assay for agonists of the steroid receptor coactivator 3 (SRC-3) recruitment by the peroxisome proliferator-activated receptor gamma (PPAR gamma): non-selective agonists. [Related pubchem assays: 1301 (Confirmation screen.), 1048 (Primary screen.)]. The format is functional.

For assay [10], the target named is Peroxisome proliferator-activated receptor gamma/Nuclear receptor coactivator 2 (Homo sapiens, UniProt P37231). The assay is described as follows: TR-FRET dose response biochemical High Throughput Screening assay for agonists of the steroid receptor coactivator 2 (SRC-2) recruitment by the peroxisome proliferator-activated receptor gamma (PPAR gamma): non-selective agonists. [Related pubchem assays: 1297, 1032 ]. It counts as functional.
Peroxisome proliferator-activated receptor gamma/Nuclear receptor coactivator 2, sequence (P37231 whole entry): as the sequence (P37231 whole entry) above
Peroxisome proliferator-activated receptor gamma/Nuclear receptor coactivator 2, sequence (Q15596 whole entry, further chain): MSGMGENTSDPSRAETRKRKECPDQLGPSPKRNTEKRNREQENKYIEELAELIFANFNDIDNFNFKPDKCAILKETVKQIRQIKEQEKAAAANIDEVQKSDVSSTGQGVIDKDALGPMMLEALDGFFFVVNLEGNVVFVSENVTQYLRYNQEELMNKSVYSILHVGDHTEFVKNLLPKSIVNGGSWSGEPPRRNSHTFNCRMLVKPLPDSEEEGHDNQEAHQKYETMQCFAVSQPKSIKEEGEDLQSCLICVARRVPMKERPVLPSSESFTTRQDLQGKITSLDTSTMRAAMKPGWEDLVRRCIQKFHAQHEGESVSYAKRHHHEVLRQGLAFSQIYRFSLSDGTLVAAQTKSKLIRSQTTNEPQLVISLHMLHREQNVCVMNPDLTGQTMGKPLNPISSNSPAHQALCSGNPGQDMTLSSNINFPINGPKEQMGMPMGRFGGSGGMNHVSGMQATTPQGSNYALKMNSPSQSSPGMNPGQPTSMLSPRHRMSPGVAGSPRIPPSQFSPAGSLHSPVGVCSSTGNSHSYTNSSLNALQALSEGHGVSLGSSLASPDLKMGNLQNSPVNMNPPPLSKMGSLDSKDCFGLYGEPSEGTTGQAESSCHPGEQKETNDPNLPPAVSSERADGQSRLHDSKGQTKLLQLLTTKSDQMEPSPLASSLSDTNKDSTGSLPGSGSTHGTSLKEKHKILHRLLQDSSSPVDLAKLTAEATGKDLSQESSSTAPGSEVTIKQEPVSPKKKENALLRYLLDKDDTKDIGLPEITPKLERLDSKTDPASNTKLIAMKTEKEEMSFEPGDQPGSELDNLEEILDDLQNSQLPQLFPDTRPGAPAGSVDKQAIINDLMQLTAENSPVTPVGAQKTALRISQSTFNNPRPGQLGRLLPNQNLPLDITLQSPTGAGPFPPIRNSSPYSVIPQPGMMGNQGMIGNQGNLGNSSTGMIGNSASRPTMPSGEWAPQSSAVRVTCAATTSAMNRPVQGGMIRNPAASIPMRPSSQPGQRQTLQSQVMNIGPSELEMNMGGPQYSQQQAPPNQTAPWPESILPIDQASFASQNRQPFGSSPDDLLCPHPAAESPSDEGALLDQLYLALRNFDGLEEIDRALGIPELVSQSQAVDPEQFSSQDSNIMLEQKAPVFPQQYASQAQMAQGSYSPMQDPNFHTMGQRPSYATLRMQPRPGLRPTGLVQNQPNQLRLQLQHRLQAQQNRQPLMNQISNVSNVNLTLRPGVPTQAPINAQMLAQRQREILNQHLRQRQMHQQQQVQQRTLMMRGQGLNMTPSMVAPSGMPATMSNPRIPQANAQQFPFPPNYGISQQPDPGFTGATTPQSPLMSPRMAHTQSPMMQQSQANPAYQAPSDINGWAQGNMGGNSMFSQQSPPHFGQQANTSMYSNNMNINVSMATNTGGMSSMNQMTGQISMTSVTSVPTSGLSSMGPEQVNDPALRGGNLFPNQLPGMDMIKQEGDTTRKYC

Assay [11] concerns the target T2, Adenosylmethionine-8-amino-7-oxononanoate aminotransferase (Mycobacterium tuberculosis, UniProt P9WQ81).
T2 sequence (P9WQ81 whole entry): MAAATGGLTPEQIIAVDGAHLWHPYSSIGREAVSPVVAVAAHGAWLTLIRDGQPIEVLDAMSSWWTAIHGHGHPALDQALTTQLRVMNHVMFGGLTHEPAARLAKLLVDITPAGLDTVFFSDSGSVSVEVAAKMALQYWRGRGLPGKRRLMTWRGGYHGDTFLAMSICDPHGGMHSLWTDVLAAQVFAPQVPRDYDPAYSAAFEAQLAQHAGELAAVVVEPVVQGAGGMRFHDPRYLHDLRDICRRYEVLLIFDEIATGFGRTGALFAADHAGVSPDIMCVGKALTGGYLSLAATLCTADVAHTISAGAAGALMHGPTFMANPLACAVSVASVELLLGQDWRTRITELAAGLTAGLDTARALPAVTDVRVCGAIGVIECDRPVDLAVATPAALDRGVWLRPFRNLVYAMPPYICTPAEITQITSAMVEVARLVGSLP
The assay is described as follows: Mycobacterium tuberculosis BioA enzyme inhibitor Measured in Biochemical System Using Plate Reader - 2163-02_Inhibitor_Dose_CherryPick_Activity. The format is functional, Mycobacterium tuberculosis UT205.

Assay [12] has as its system Vero. Description: cells. The format is functional. Particulars: Chlorocebus sabaeus.
For assay [13], the system named is BJ. Description: cytotoxicity toward BJ-TERT fibroblasts, dose response, cell-based, RAS-independent, luminescence (AID 1933). The format is functional. The following applies: Homo sapiens.
Assay [14] deals with BJ. The assay is described as follows: cells. The format is functional, cell-based. The following applies: Homo sapiens.
Assay [15] has as its system BJ. The assay is described as follows: cytotoxicity toward BJ-TERT-LT-ST fibroblasts, dose response, cell-based, RAS-independent, luminescence (AID 1935).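 Further: BJ fibroblasts immortalized with TERT plus LT and ST oncogenes.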 It counts as functional. Particulars: Homo sapiens.
The nature of assay [16]: cytotoxicity toward DRD oncogenic fibroblasts, dose response, cell-based, non-viral oncogenic, luminescence (AID 1934). It counts as functional. The following applies: Homo sapiens.
The test system of assay [17] is BJ. The assay is described as follows: cytotoxicity toward Ras-transformed BJeLR fibroblasts, dose response, cell-based, alamar blue fluorescence, cherrypicked samples (AID 2631).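 Further: confirmatory dose-response assay in RAS-dependent BJ fibroblasts engineered with TERT, LT and ST, with cytotoxicity read by fluorescence.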 It counts as functional. The following applies: Homo sapiens.
Assay [18] has as its target Beta-galactosidase (Escherichia coli, UniProt Q8VNN2). Description: PubChem AID 485352. It counts as functional.
Assay [19] concerns the target T3, Type-1 angiotensin II receptor (Homo sapiens, UniProt P30556).
T3 sequence (P30556 whole entry): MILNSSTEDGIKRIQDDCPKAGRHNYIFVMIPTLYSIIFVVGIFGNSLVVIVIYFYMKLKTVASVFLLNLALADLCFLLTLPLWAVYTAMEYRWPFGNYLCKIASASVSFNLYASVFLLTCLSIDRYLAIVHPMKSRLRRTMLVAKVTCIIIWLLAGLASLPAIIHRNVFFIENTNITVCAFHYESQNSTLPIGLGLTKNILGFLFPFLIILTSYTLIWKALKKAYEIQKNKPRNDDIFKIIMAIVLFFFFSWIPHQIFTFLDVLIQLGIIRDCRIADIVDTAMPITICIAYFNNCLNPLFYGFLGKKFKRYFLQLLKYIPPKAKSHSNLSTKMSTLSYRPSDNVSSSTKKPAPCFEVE
Description: AT1 receptor antagonists, dose response, selectivity assay for APJ receptor antagonist project, cell-based, uHTS hits (AID 463214).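 Further: antagonist potency against angiotensin II stimulated AT1 response.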 The format is functional.

A short description of assay [20]: Shn3 3'UTR reporter inhibitors, dose response, cell-based, Clone20 osteoblasts, firefly luciferase, cherry-picked (AID 624132).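 Further: firefly luciferase luminescence from reporter carrying the Shn3 3'UTR in osteoblasts.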 The format is functional.
A short description of assay [21]: control 3'UTR Renilla luciferase suppression, dose response, counter-screen for Shn3 inhibitor project, cell-based, Clone20-Shn3RL, cherry-picked (AID 624133). The format is functional. On the technique in general: A counterscreen serves to expose hits that act by an unwanted route or on another target.
Assay [22] can be described thus: microbe, parasite or virus in culture. The format is functional. The following applies: Mycobacterium tuberculosis.
The nature of assay [23]: growth suppression of PTEN-null colon cells, dose response, cell-based, HCT116 PTEN knockout (AID 1047).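 Further: HCT116 colon tumor cells with PTEN knocked out; cells exposed to compound for 60 hours before readout; potency for loss of cell viability measured by luminescence.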 The format is functional.
Assay [24] is described as follows: growth suppression of beta-catenin-knockout colon cells, dose response, cell-based, HCT116, human colon tumor (AID 1045).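 Further: HCT116 colon tumor cells with beta catenin knocked out; cells exposed to compound for 60 hours.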 The format is functional.
The target of assay [25] is G-protein coupled receptor 55 (Homo sapiens, UniProt Q9Y2T6). The assay is described as follows: GPR55 agonists via beta-arrestin recruitment, primary screen, imaging, U2OS cells, beta-arrestin-GFP redistribution (AID 1961). It counts as functional.
Assay [26] has as its target Cytochrome P450 2C9 (Homo sapiens, UniProt P11712).

Calls of active or inactive are those of the source.

Protein Wnt-3a, sequence (P27467 whole entry): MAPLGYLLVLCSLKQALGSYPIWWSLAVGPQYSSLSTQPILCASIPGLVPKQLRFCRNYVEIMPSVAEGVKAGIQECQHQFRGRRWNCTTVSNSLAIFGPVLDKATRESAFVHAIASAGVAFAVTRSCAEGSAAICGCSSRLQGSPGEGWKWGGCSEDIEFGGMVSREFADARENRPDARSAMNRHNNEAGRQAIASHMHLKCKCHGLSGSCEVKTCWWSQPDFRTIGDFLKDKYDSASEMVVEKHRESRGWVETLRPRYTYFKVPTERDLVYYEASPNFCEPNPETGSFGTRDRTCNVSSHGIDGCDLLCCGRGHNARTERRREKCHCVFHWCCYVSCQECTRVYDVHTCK
Cytochrome P450 2C9, sequence (P11712 whole entry): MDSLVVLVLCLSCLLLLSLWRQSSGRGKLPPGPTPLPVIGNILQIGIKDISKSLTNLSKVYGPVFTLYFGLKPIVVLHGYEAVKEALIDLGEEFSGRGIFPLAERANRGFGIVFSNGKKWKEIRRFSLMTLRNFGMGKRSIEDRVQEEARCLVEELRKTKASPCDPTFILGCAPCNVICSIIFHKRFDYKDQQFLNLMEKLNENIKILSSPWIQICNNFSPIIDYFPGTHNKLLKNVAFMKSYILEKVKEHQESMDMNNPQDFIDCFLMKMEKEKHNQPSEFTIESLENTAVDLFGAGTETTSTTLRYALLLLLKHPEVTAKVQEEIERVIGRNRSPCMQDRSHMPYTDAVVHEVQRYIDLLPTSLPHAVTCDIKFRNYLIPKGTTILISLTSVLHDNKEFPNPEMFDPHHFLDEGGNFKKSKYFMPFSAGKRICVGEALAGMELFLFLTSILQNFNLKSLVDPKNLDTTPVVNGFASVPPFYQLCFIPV
26S proteasome non-ATPase regulatory subunit 14, sequence (O00487 whole entry): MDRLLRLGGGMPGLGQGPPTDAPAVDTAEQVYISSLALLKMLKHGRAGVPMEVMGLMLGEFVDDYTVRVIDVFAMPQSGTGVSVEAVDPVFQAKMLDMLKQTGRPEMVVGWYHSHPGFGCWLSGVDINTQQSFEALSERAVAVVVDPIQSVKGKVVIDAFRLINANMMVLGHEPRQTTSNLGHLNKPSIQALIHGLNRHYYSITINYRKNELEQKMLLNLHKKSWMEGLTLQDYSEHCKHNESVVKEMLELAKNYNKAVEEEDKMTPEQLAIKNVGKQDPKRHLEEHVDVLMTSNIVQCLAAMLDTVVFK

With `Cc1csc(NC(=O)CSc2nc3sc(C)c(C)c3c(=O)[nH]2)n1`, the figures for the IC50 in assay [1], in assay [2] and in assay [3] were 24.3 µM (active), > 100 µM (inactive) and 43.6 µM (active), respectively.

As for `CC(C)Cc1ccc(C(C)C(=O)Nc2cccnc2)cc1` (stereo unspecified), the EC50 in assay [4] was > 53 µM (inactive). Also, in [5], the IC50 is 5.34 µM (active).

`C[N+]1(CC(=O)OC2CCCCCCCCCCC2)CCCC1`: the EC50 in assay [6] was > 150 µM (inconclusive); in [7], 1.65 µM (active). Further, the IC50 in assay [5] was 28 µM (inactive).

Take `CCn1c(=O)cc(SCC(=O)N2CCN(Cc3ccc4c(c3)OCO4)CC2)c2ccccc21`: the EC50 in assay [8] is > 79.4 µM (inactive); in assay [9], > 79.4 µM (not active); in assay [10] it was > 79.4 µM (not active).

As for `CCc1cc(=O)oc2cc(C)cc(O)c12`, the EC50 in assay [8] is > 79.4 µM (inactive); in assay [9], > 79.4 µM (not active); in assay [10], 21.1 µM (not active).

`O=C(CSc1nc2c(c(=O)n1-c1ccccc1)SCC2)N1CCN(c2ccccc2)CC1`: the concentration at half-maximal activity (AC50) in [11] was 1.08 µM (active).

Turning to `CC1CC(N(C(=O)c2ccc(Cl)cc2)c2ccccc2)c2ccccc2N1C(=O)c1ccco1` (stereo unspecified), the CC50 in assay [12] is 15.1 µM (active).

Regarding `COc1ccccc1C1C2=C(O)OCC2=Nc2cc3c(cc21)OCO3` (stereo unspecified), the EC50 in [13] is 6.64 µM (inconclusive); in assay [14] it was 15.2 µM (inconclusive); in assay [15], 9.65 µM (inconclusive); in [16], 9.6 µM (inconclusive); in assay [17] it was < 0.104 µM (active).

With `Cc1ccc(OCC(=O)OCC(=O)c2cccc([N+](=O)[O-])c2)cc1C`, the EC50 in assay [18] is > 40 µM (inactive). Moreover, the IC50 in [19] is recorded as > 40 µM (not active).

For the compound `CCC(CC)CN1C(N(C)C)=NC[C@@H]1CC(C)C`, the AC50 in [20] is 0.717 µM (active); in [21], 1.84 µM (active). The IC50 in [5] is 5.72 µM (active).

For the compound `CCCCC(=O)Nc1sc2c(c1C(=O)OCC)CCC(C=O)=C2Cl`, the CC50 in assay [22] is > 40 µM (active). In addition, the results for the EC50 in assay [23], in assay [24] and in [25] were 5.83 µM (active), 5.91 µM (active) and > 32 µM (inactive), respectively. For the same compound, the AC50 in assay [26] is 7.94 µM (inconclusive).

Usually AC50 stands for the concentration giving half of the maximal activity seen.
